The record followed here is publication PMC6911621 (Cancer research, 2019).

Test [1] deals with tumor cells. Description: Tumor cell death with pan-caspase inhibitor. Format: cell-based. The conditions noted are these: plus cell-permeable MFF peptide #8–11, Supplementary Fig. S4D.
In test [2] the test system is tumor cells. Description: HMGB1 release. Format: cell-based. Conditions: Supplementary Fig. S4F and G.
Test [3] has as its target endogenous voltage-dependent anion channel-1 (VDAC1) (human (endogenous in PC3)) (UniProt P21796).

Ends that are not written are not given here. Peptide text beside a SMILES is read from it. * marks the point of attachment. Biotin = O=C1N[C@H]2[C@H](CS[C@H]2CCCCC(=O)*)N1; Cbz = O=C(OCc1ccccc1)*; Ahx = NCCCCCC(=O)O; CH2F = FC*

Chain of endogenous voltage-dependent anion channel-1 (VDAC1) (human (endogenous in PC3)) (P21796 whole entry): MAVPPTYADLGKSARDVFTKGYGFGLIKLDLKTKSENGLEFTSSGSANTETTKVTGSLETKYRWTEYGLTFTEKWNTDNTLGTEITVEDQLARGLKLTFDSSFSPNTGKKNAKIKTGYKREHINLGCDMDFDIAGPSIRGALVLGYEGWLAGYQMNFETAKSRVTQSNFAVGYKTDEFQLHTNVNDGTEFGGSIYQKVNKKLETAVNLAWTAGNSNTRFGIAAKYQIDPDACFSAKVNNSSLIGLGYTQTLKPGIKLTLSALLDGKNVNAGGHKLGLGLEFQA

Regarding `COC(=O)C[C@H](NC(=O)[C@H](C)NC(=O)[C@@H](NC(=O)OCc1ccccc1)C(C)C)C(=O)CF` [Z-VAD-fmk] (Cbz-Val-Ala-Asp(OMe)-CH2F), the “reversal of cell death induced by cell-permeable MFF peptide #8–11” value in test [1] was “did not significantly reduce tumor cell death”.

Regarding “MFF-DD mutant peptide #8–11: MFF peptide #8–11 containing the double mutation Arg225Asp/Arg236Asp (DD) ({Biotin-Ahx}-RQIKIWFQNRRMKSADGILSLIQSSTDRAYQQIL)”, the HMGB1 release result in test [2] is on record as “did not cause HMGB1 release”. Take {Biotin-Ahx}-RQIKIWFQNRRMKSARGILSLIQSSTRRAYQQIL [cell-permeable MFF peptide #8-11]: in test [3], the other was 10 µM.
